Results published in ChEMBL document CHEMBL1201862, “PubChem BioAssay data set” (2004).
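Interpolation was linear, between the two tested concentrations surrounding the appropriate level; five concentrations were tested over 48 hours in 96-well plates. The concentration for 50% growth inhibition is given as GI50.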 The source made the active and inactive calls. Cut-off read from the data, not from the text of the source: active = GI50 up to about 1.1 µM and inactive = higher.

What was measured:
Assay in all cases: NCI tumour cell line growth inhibition, 48 h
[1] = tested on: UACC-62
[2] = tested on: SNB-78
[3] = tested on: SN12C
[4] = tested on: U-251
[5] = tested on: HCT-15
[6] = tested on: HOP-92
[7] = tested on: OVCAR-4
[8] = tested on: OVCAR-3
[9] = tested on: K562
[10] = tested on: NCI-H23
[11] = tested on: CAKI-1
[12] = tested on: SK-MEL-5
[13] = tested on: LOX IMVI
[14] = tested on: SW-620
[15] = tested on: OVCAR-5
[16] = tested on: HCT-116
[17] = tested on: MDA-MB-231
[18] = tested on: PC-3
[19] = tested on: DU-145
[20] = tested on: MDA-N

Row | Structure (SMILES) | GI50 [1] | GI50 [2] | GI50 [3] | GI50 [4] | GI50 [5] | GI50 [6] | GI50 [7] | GI50 [8] | GI50 [9] | GI50 [10] | GI50 [11] | GI50 [12] | GI50 [13] | GI50 [14] | GI50 [15] | GI50 [16] | GI50 [17] | GI50 [18] | GI50 [19] | GI50 [20]
1 | COc1cccc(/C(C=O)=C(\Cl)c2ccc(OC)c(OC)c2)c1 | 4.63 µM (inactive) | 13 µM (inactive) | 14.7 µM (inactive) | 13.9 µM (inactive) | 12.9 µM | 20.6 µM (inactive) | 16 µM (inactive) | 16.6 µM (inactive) | 13.6 µM (inactive) | 12.2 µM (inactive) | 29.2 µM (inactive) | 12.7 µM (inactive) | 15 µM (inactive) | 15.9 µM (inactive) | 19 µM (inactive) | 10.6 µM (inactive) | – | – | – | –
2 | Nn1c(CCCl)nc2c(Br)cc(Br)cc2c1=O | 31.9 µM (inactive) | 34 µM (inactive) | 30.8 µM (inactive) | 23.1 µM (inactive) | 22.1 µM | 33 µM (inactive) | 19.1 µM (inactive) | 9.62 µM (inactive) | 13.2 µM (inactive) | 24 µM (inactive) | 30.7 µM (inactive) | 17.3 µM (inactive) | 25.5 µM (inactive) | 20.5 µM (inactive) | 30.1 µM (inactive) | 25.3 µM (inactive) | – | – | – | –
3 | O=C(CCc1nnc(S)[nH]1)Nc1cc(Cl)c(Cl)cc1Cl | > 100 µM (inactive) | > 100 µM (inactive) | > 100 µM (inactive) | > 100 µM (inactive) | > 100 µM | > 100 µM (inactive) | > 100 µM (inactive) | > 100 µM (inactive) | > 100 µM (inactive) | > 100 µM (inactive) | > 100 µM (inactive) | > 100 µM (inactive) | > 100 µM (inactive) | > 100 µM (inactive) | > 100 µM (inactive) | > 100 µM (inactive) | – | – | – | –
4 | Clc1ccc2ns[s+]c2c1 | 0.275 µM (active) | > 100 µM (inactive) | 19.4 µM (inactive) | 18.3 µM (inactive) | 0.33 µM | 22.5 µM (inactive) | 22.4 µM (inactive) | 31.6 µM (inactive) | 0.0611 µM (active) | 11.7 µM (inactive) | 1.63 µM (inactive) | 15.5 µM (inactive) | 1.29 µM (inactive) | 6.62 µM (inactive) | 6.58 µM (inactive) | 1.03 µM (active) | 25.3 µM (inactive) | 0.847 µM (active) | 8.79 µM (inactive) | 3.4 µM (inactive)
5 | CC1OC(OC2C[C@](O)(C(=O)CF)Cc3c(O)c4c(c(O)c32)C(=O)c2ccccc2C4=O)CC(N)C1O (stereo partly specified) | < 0.0104 µM (active) | 0.241 µM (active) | < 0.01 µM (active) | < 0.013 µM (active) | 0.0588 µM | 0.0483 µM (active) | 0.152 µM (active) | 0.233 µM (active) | < 0.0153 µM (active) | < 0.01 µM (active) | < 0.01 µM (active) | < 0.0113 µM (active) | < 0.01 µM (active) | < 0.0116 µM (active) | 0.0719 µM (active) | < 0.01 µM (active) | 0.043 µM (active) | 0.0275 µM (active) | < 0.01 µM (active) | 0.108 µM (active)
6 | CN(C(=O)c1ccc(Cl)cc1)C(=S)N1CCN(c2ccccn2)CC1 | > 100 µM (inactive) | > 100 µM (inactive) | > 100 µM (inactive) | > 100 µM (inactive) | > 100 µM | 35.6 µM (inactive) | > 100 µM (inactive) | > 100 µM (inactive) | > 100 µM (inactive) | > 100 µM (inactive) | > 100 µM (inactive) | > 100 µM (inactive) | > 100 µM (inactive) | > 100 µM (inactive) | > 100 µM (inactive) | > 100 µM (inactive) | – | – | – | –
7 | COC(=O)C1=Cc2c(cc(OC)c(OC)c2OC)[C@H](c2ccc(OC)c(OC)c2OC)C1C(=O)OC (stereo partly specified) | 54.2 µM (inactive) | 40.8 µM (inactive) | > 100 µM (inactive) | > 100 µM (inactive) | 75 µM | 17.4 µM (inactive) | > 100 µM (inactive) | > 100 µM (inactive) | > 100 µM (inactive) | > 100 µM (inactive) | > 100 µM (inactive) | > 100 µM (inactive) | > 100 µM (inactive) | > 100 µM (inactive) | > 100 µM (inactive) | 92.3 µM (inactive) | – | – | – | –
8 | C[n+]1c2n(c3nc(N)[nH]c(=O)c31)C1OC(C2)C(O)C1O (stereo unspecified) | > 100 µM (inactive) | > 100 µM (inactive) | > 100 µM (inactive) | > 100 µM (inactive) | – | > 100 µM (inactive) | > 100 µM (inactive) | > 100 µM (inactive) | > 100 µM (inactive) | > 100 µM (inactive) | > 100 µM (inactive) | > 100 µM (inactive) | > 100 µM (inactive) | > 100 µM (inactive) | > 100 µM (inactive) | > 100 µM (inactive) | – | – | – | –
9 | O=C(O)Cc1cccc2c(=O)cc(-c3ccccc3)oc12 [MITOFLAXONE] | > 250 µM (inactive) | > 250 µM (inactive) | 238 µM (inactive) | > 250 µM (inactive) | 220 µM | – | 185 µM (inactive) | 235 µM (inactive) | 239 µM (inactive) | > 250 µM (inactive) | 142 µM (inactive) | 230 µM (inactive) | 243 µM (inactive) | > 250 µM (inactive) | 242 µM (inactive) | 206 µM (inactive) | > 250 µM (inactive) | > 250 µM (inactive) | > 940 µM (inactive) | 385 µM (inactive)
10 | Cc1ccc(S(=O)OC2C3CC4CC(C3)CC2C4)cc1 (stereo unspecified) | > 100 µM (inactive) | > 100 µM (inactive) | > 100 µM (inactive) | > 100 µM (inactive) | > 100 µM | > 100 µM (inactive) | > 100 µM (inactive) | > 100 µM (inactive) | > 100 µM (inactive) | > 100 µM (inactive) | > 100 µM (inactive) | > 100 µM (inactive) | > 100 µM (inactive) | > 100 µM (inactive) | > 100 µM (inactive) | > 100 µM (inactive) | – | – | – | –
11 | NC(=O)NO [HYDROXYUREA] | 291 µM (inactive) | 2160 µM (inactive) | 738 µM (inactive) | 581 µM (inactive) | 871 µM | 895 µM (inactive) | 1850 µM (inactive) | 1240 µM (inactive) | 877 µM (inactive) | 710 µM (inactive) | 270 µM (inactive) | 507 µM (inactive) | 700 µM (inactive) | 1090 µM (inactive) | 601 µM (inactive) | 995 µM (inactive) | > 1410 µM (inactive) | 1010 µM (inactive) | 818 µM (inactive) | 1940 µM (inactive)
12 | Cc1cccc(C)c1NC(=O)/C(Cl)=C(/Cl)C(=O)O | 13.7 µM (inactive) | 28.2 µM (inactive) | 18.7 µM (inactive) | 21.1 µM (inactive) | 16.2 µM | 15.5 µM (inactive) | 18.5 µM (inactive) | 20.9 µM (inactive) | 3.23 µM (inactive) | 19.1 µM (inactive) | 7.66 µM (inactive) | 19.9 µM (inactive) | 18.1 µM (inactive) | 7.74 µM (inactive) | 20.4 µM (inactive) | 21.1 µM (inactive) | 21.3 µM (inactive) | 19.8 µM (inactive) | 26.5 µM (inactive) | 19.2 µM (inactive)
13 | Cc1cc2c(c3oc(C4(C)OC4C4OC4C)cc(=O)c13)C(=O)c1c(O)c(C3CC(C)(N(C)C)C(O)C(C)O3)cc(C3CC(N(C)C)C(O)C(C)O3)c1C2=O (stereo unspecified) | 6.43e-05 µM (active) | 0.0025 µM (active) | 0.000136 µM (active) | 4.1e-05 µM (active) | – | 0.000733 µM (active) | – | 0.000191 µM (active) | 0.0025 µM (active) | 0.0025 µM (active) | 5.46e-05 µM (active) | 0.00112 µM (active) | – | 0.0025 µM (active) | 8.95e-05 µM (active) | 1.54e-05 µM (active) | 0.000227 µM (active) | 6.52e-05 µM (active) | 6.85e-05 µM (active) | –
